The values that follow come from patent US20190365818A1, “GENETICALLY-TAGGED STEM CELL LINES AND METHODS OF USE” (ALLEN INSTITUTE, priority 2017, published 2019).

Entries after “also recorded” stand apart in the source; their conditions may differ.

In one assay the test system is Golgi. Put plainly: Fluorescence quantification of 3D images: drug-induced Golgi reorganization. Particulars: GFP channel intensity summed over z-stack, 30-minute intervals, vs DMSO. The format is cell-based, human. From the text:
(§1) The pipeline was prototyped using a small suite of well-characterized compounds that include brefeldin A, paclitaxel, rapamycin, wortmannin and staurosporine (FIG. 26A). Low-resolution imaging (24× magnification) was used to test a matrix of concentrations and time points for each compound of interest to establish an initial set of conditions for each perturbation. hiPSC colonies were monitored for morphologic changes using transmitted light (FIG. 26B) and an endogenously GFP-tagged structure, such as microtubules (FIG. 26C). After establishing an end point response for several compounds, high-resolution (120× magnification) imaging of multiple cell lines was performed under standardized perturbation parameters, in the presence of dyes to label the nucleus and cell membrane for reference purposes (FIG. 27). […] Cells were treated with the indicated perturbation agent at a pre-selected concentration and time point established in phase I.
(§2) Fluorescence quantification of the 3D images were used to analyze drug-induced Golgi reorganization, cytoskeleton reorganization, and cell junction reorganization. To quantify the relative abundance of each structure of interest (e.g. Golgi as presented above), the pixel intensities of the GFP channel (488 nm) were summed across the entire z-stack. […]

Another assay concerns microtubules. As to the kind of experiment: Image-based drug perturbation of GFP-tagged hiPSC lines: microtubules. The format is cell-based, human.
Description: as §1, §2

In a further assay the test system is ER. Put plainly: Image-based drug perturbation of GFP-tagged hiPSC lines: ER. Particulars: hiPS cells undergoing mitosis. The format is cell-based, human.
Description: as §1

Another assay relates to actin. Put plainly: Image-based drug perturbation of GFP-tagged hiPSC lines: actin. The class given is cell-based, human.
Description: as §1, §2

The next assay has as its system cell junctions. As to the kind of experiment: Image-based drug perturbation of GFP-tagged hiPSC lines: cell junctions. The arrangement: species or system human.
Description: as §1

Another assay deals with hiPSC colonies. Put plainly: Image-based drug perturbation of hiPSC colonies: colony and cell morphology. On the set-up: species or system human.
Description: as §1

The next assay has as its system desmosomes. As to the kind of experiment: Image-based drug perturbation of GFP-tagged hiPSC lines: desmosomes (3D object count). The format is cell-based, human. The source says: (§3) The pipeline was prototyped using a small suite of well-characterized compounds that include brefeldin A, paclitaxel, rapamycin, wortmannin and staurosporine (FIG. 26A). Low-resolution imaging (24× magnification) was used to test a matrix of concentrations and time points for each compound of interest to establish an initial set of conditions for each perturbation. hiPSC colonies were monitored for morphologic changes using transmitted light (FIG. 26B) and an endogenously GFP-tagged structure, such as microtubules (FIG. 26C). After establishing an end point response for several compounds, high-resolution (120× magnification) imaging of multiple cell lines was performed under standardized perturbation parameters, in the presence of dyes to label the nucleus and cell membrane for reference purposes (FIG. 27). […]
(§4) For drug-induced effects on cell junction reorganization, representative maximum intensity projections of a z-stack along the x-z axis are shown in FIG. 30. From these projections, the mean pixel intensity for the GFP channel along the x-axis, from the top of the image to the bottom, was measured to generate an intensity profile plot. […] To analyze the change in desmosome number, the number of 3D objects in a z-stack were counted using the 3D Object Counter tool in Fiji. […] Data were analyzed by Student's t-test (** p<0.01).

In another assay the test system is myosin. As to the kind of experiment: Relative fluorescence quantification and z-axis intensity profiling: myosin. The format is cell-based, human. Particulars: for myosin organization through the thickness of the cell: z-axis intensity profiling.
Description: as §1
Fluorescence quantification of the 3D images were used to analyze drug-induced Golgi reorganization, cytoskeleton reorganization, and cell junction reorganization. To quantify the relative abundance of each structure of interest (e.g. Golgi as presented above), the pixel intensities of the GFP channel (488 nm) were summed across the entire z-stack. For each experiment, the same threshold was used to exclude background intensity noise across the control (DMSO) and experimental (perturbation agent) groups. The data were plotted by averaging z-stack data from a time interval (30-minute) and compared to the control DMSO data. Dunnett's multiple comparison test was used to perform one-way ANOVA between the different time intervals against the control group.

The test system of a further assay is ZO-1. Put plainly: Z-axis intensity profiling of 3D images: cell junction reorganization (ZO-1). The class given is cell-based, human. The settings on record: x-z maximum intensity projection, intensity profile plot.
Description: as §3, §4

[1] abbreviates: 3D fluorescence quantification vs DMSO.

For the compound `C[C@H]1CCC/C=C/[C@@H]2C[C@H](O)C[C@H]2[C@H](O)/C=C/C(=O)O1` [Brefeldin A, brefeldin A], in the assay with Golgi, the “effect on Golgi organization” value is recorded as “induced dissociation of the golgi within 30 minutes”.
Consider `CC(=O)O[C@H]1C(=O)[C@@]2(C)[C@H]([C@H](OC(=O)c3ccccc3)[C@]3(O)C[C@H](OC(=O)[C@H](O)[C@@H](NC(=O)c4ccccc4)c4ccccc4)C(C)=C1C3(C)C)[C@]1(OC(C)=O)CO[C@@H]1C[C@@H]2O` [paclitaxel], for which the “effect on microtubule organization” value in the assay with microtubules (GFP-tagged hiPSC, high-resolution (120x) imaging, vs DMSO control) is “increased microtubule bundle thickness and altered the shape and position of the mitotic spindle; also recorded: stabilized the microtubules”. Further, the “microtubule relative localized fluorescence intensity” value in the assay on microtubules (over time, vs DMSO) is given as “trend of increased relative localized fluorescence intensity over time”. In addition, the “effect on organization of the ER” value in the assay on ER is “induced aberrant reorganization of the ER”. Besides, in the assay on actin (GFP-tagged hiPSC), the “effect on bulk organization of the actin bundles” value was “minimal effects”. Besides, the “effect on bulk organization of cell junctions” value with cell junctions is given as “minimal effects”.
With `CN[C@@H]1C[C@H]2O[C@@](C)([C@@H]1OC)n1c3ccccc3c3c4c(c5c6ccccc6n2c5c31)C(=O)NC4` [staurosporine], the “effect on colony and cell morphology” value with hiPSC colonies is “major effects on colony and cell morphology, inducing rearrangements in cell packing and shape”. Moreover, the “number of DSP-positive plaques” value in the assay with desmosomes (3D Object Counter, Student's t-test p<0.01) was “increased in number”. In the assay with desmosomes (GFP-tagged hiPSC), the “effect on desmosome localization” value is “induced re-localization of desmosomes; also recorded: desmosomes relocalized throughout the cell”. Besides, the “myosin organization through the thickness of the cell” value with myosin is listed as “induced reorganization of the myosin”. Moreover, the “distribution of ZO-1 along the z-axis” value with ZO-1 is “redistribution of ZO-1 along the z-axis”.
Turning to (S)-nitro blebbistatin, in the assay on actin (setting [1]), the “relative actin protein abundance and organization” value was “reorganization and relative decrease”. In the assay with Golgi, the “effect on Golgi organization” value is given as “induced fragmentation of the organelle”. Further, the “relative myosin protein abundance and organization” value in the assay on myosin (setting [1]) is “reorganization and relative decrease”. Moreover, the “myosin organization through the thickness of the cell” value in the assay on myosin is “induced reorganization of the myosin”. Moreover, the “distribution of ZO-1 along the z-axis” value in the assay with ZO-1 was “redistribution of ZO-1 along the z-axis”.
